Results taken from patent US20170128475A1, “COMPOSITIONS AND METHODS FOR PREVENTING AND TREATING ORGAN INJURY AND/OR DYSFUNCTION” (THE GENERAL HOSPITAL CORPORATION, priority 2010, published 2017).

Assays:
Cx32+/+ and Cx32−/− mice = test: TAA-induced mortality in Cx32+/+ and Cx32−/− mice; format: in vivo; conditions: single lethal dose 500 mg/kg TAA, 30 days
Description: FIG. 1C is a series of micrographs showing less liver hemorrhaging, necrosis and acute inflammation in Cx32−/− mice compared to Cx32+/+ mice 24 hours after TAA treatment (H&E staining; original magnification 10×; scale bar=400 μm). FIG. 1D presents bar graphs depicting increase in total liver TNF-α, pro-IL-1α, IL-6, and CCL5 transcripts, as measured by Q-PCR, in Cx32+/+ mice 12 hours after TAA, compared to Cx32−/− mice. FIG. 1E is a bar graph of liver tissue myeloperoxidase activity (MPO) in Cx32+/+ and Cx32−/− mice 24 hours after treatment with TAA. FIG. 1F is a Kaplan-Meier survival curve for Cx32+/+ and Cx32−/− mice over 30 days after a single lethal dose of 500 mg/kg TAA (Cx32+/+ and Cx32−/−: n=12).
C57BL/6 mice were purchased from Jackson Laboratory. Cx32−/− mice were a generous gift from K. Willecke (University of Bonn) and D. Paul (Harvard University). All animal protocols were approved by Massachusetts General Hospital Subcommittee on Research Animal Care. For survival experiments, animals were euthanized when they became moribund according to the criteria of lack of response to stimuli or lack of righting reflex.
TAA (Sigma Aldrich, St. Louis, Mo.) solution was made fresh for each experiment in 0.9% saline at 20 mg/ml. TAA was dosed at 200, 500 or 1000 mg/kg, depending on the experiment, and injected intraperitoneally. Control mice received the appropriate volume of 0.9% saline. […]

Cx43 gap junctions = test: Dye-coupling parachute assay, HeLa Cx43 cells; format: cell-based; conditions: 2APB 100 μM, 4 hours, normalized to no 2APB
Description: (§1) FIG. 2A-FIG. 2F presents data on small molecule inhibitors of Cx32 that selectively block hepatic gap junction communication and limit drug-induced hepatotoxicity. FIG. 2A and FIG. 2B depict a dye-coupling parachute assay was used to determine the specificity of 2APB for Cx32 gap junctions compared to Cx43 gap junctions. HeLa Cx32 or Cx43 cells were loaded with gap junction permeable calcein-AM (10 μM) and impermeable CM-DiI (10 μM), and seeded onto unlabeled recipient HeLa Cx32 or Cx43 cells, respectively, in the presence or absence of 2APB (100 μM). After 4 hours, the co-culture was analyzed by fluorescence microscopy (n>5), and gap junction communication was assessed by calculating the average number of calcein positive cells per CM-Dil positive cells, normalized to control conditions without 2APB treatment. FIG. 2C depicts a tissue version of the scrape and load test, developed to evaluate functional gap junction intercellular communication in liver tissue. Cx32+/+ and Cx32−/− mice were treated with saline, 2APB (20 mg/kg), or 2APB plus TAA (200 mg/kg) for 3 hours. […] Slices were washed, fixed, cryosectioned (7 μm), and analyzed by fluorescence microscopy (n>5) and custom automated image analysis software to produce iso-intensity contour maps outlining spread of Lucifer yellow and dextran-Texas red. […]

Cx32 gap junctions [1] = test: Dye-coupling parachute assay, HeLa Cx32 cells; format: cell-based; conditions: 2APB 100 μM, 4 hours, normalized to no 2APB
Description: as §1

wild type mice [2] = test: TAA-induced hepatotoxicity in wild type mice treated with 2APB; format: in vivo; conditions: for total hepatic ROS levels: 2APB (20 mg/kg) coadministered with TAA (200 mg/kg), 4 hours, dihydroethidium staining
Description: FIG. 2A-FIG. 2F presents data on small molecule inhibitors of Cx32 that selectively block hepatic gap junction communication and limit drug-induced hepatotoxicity. FIG. 2A and FIG. 2B depict a dye-coupling parachute assay was used to determine the specificity of 2APB for Cx32 gap junctions compared to Cx43 gap junctions. HeLa Cx32 or Cx43 cells were loaded with gap junction permeable calcein-AM (10 μM) and impermeable CM-DiI (10 μM), and seeded onto unlabeled recipient HeLa Cx32 or Cx43 cells, respectively, in the presence or absence of 2APB (100 μM). After 4 hours, the co-culture was analyzed by fluorescence microscopy (n>5), and gap junction communication was assessed by calculating the average number of calcein positive cells per CM-Dil positive cells, normalized to control conditions without 2APB treatment. FIG. 2C depicts a tissue version of the scrape and load test, developed to evaluate functional gap junction intercellular communication in liver tissue. Cx32+/+ and Cx32−/− mice were treated with saline, 2APB (20 mg/kg), or 2APB plus TAA (200 mg/kg) for 3 hours. Livers were excised, cut into 2-3 mm slices, and a small area of each slice was mechanically damaged with the insertion of a 27 gauge needle coated with 0.5% Lucifer yellow (gap junction permeable) and 0.5% Texas red labeled dextran (gap junction impermeable). Slices were washed, fixed, cryosectioned (7 μm), and analyzed by fluorescence microscopy (n>5) and custom automated image analysis software to produce iso-intensity contour maps outlining spread of Lucifer yellow and dextran-Texas red. […] FIG. 2D: Serum alanine aminotransferase (ALT) levels; FIG. 2E: liver tissue MPO activity; and FIG. 2F: H&E liver sections (original magnification 10×; scale bar=400 μm) from wildtype mice pretreated with 2APB (20 mg/kg) or vehicle for 60 minutes, and then challenged with TAA (200 mg/kg) for 24 hours.
(§2) Serum ALT levels (FIG. 3A); liver tissue MPO activity (FIG. 3B); and H&E liver sections (FIG. 3C) (original magnification 10×; scale bar=400 μm) from wildtype mice after treatment with 2APB alone (20 mg/kg), TAA (200 mg/kg) plus vehicle, TAA (200 mg/kg) plus 2APB (1 or 20 mg/kg), APAP (500 mg/kg) plus vehicle, or APAP (500 mg/kg) plus 2APB (20 mg/kg). Livers and sera were collected 24 hours after TAA challenge, or 16 hours after APAP challenge. FIG. 3D reflects Q-PCR for TNF-α, […], IL-6, and CCL5 from whole livers of mice treated with TAA and 2APB as described above. FIG. 3E is a Kaplan-Meier survival curve for wildtype mice over 30 days after a single lethal dose of TAA (500 mg/kg) plus vehicle, or TAA (500 mg/kg) plus 2APB (20 mg/kg) (n=10). Serum ALT levels (FIG. 3F) and H&E liver sections (FIG. 3G) (original magnification 10×; scale bar=400 μm) from wildtype mice after TAA (200 mg/kg) or APAP (500 mg/kg), with or without a rescue injection of 2APB (20 mg/kg) at 1.5, 3 or 6 hours after hepatotoxin challenge. Livers and sera were collected 24 hours after TAA challenge, or 16 hours after APAP challenge.
Liver cryosections from Cx32+/+ mice treated with vehicle, TAA (200 mg/kg) plus vehicle, or TAA (200 mg/kg) plus 2APB (20 mg/kg) for 4 hours were stained with dihydroethidium, a cell permeable free radical probe that binds nucleic DNA and becomes fluorescent when […], and analyzed by fluorescence microscopy for ROS activity (n>5).
TAA (Sigma Aldrich, St. Louis, Mo.) solution was made fresh for each experiment in 0.9% saline at 20 mg/ml. TAA was dosed at 200, 500 or 1000 mg/kg, depending on the experiment, and injected intraperitoneally. Control mice received the appropriate volume of 0.9% saline. Animals were euthanized by ketamine/xylazine injection at 24 hr for collection of serum and liver tissue for qPCR, GSH/GST assay, MPO activity assay, and histology. For survival experiments, animals were observed every 24 hr for 30 days.
2APB (Sigma Aldrich) was made fresh for each experiment in DMSO as a vehicle at 200 mg/ml. […]

[3] = test system: hepatic gap junction communication; test: Tissue scrape and load assay on explanted liver slices; format: in vivo, mice; conditions: 2APB 20 mg/kg i.p.; livers excised after 3 hours
Description: as §1, with “treatment.” for “treatment. FIG. 2C depicts a tissue version of the scrape and load test, developed to evaluate functional gap junction intercellular communication in liver tissue. Cx32+/+ and Cx32−/− mice were treated with saline, 2APB (20 mg/kg), or 2APB plus TAA (200 mg/kg) for 3 hours.”
Fluorescence images were captured on a Zeiss 200 Axiovert microscope at a fixed exposure and gain. Images for the tissue scrape load assay were quantified using custom image analysis routines written in MATLAB13. […] Regional outlines were plotted as contour maps by displaying iso-intensity lines at the determined threshold level.

wild type mice [4] = test: APAP-induced hepatotoxicity in wild type mice treated with 2APB; format: in vivo
Description: as §2
APAP (Sigma Aldrich) solution was made fresh for each experiment in 0.9% saline at 20 mg/ml and heated until dissolved. APAP was dosed at 500 or 750 mg/kg, and injected intraperitoneally after 15 hr of starvation. Animals were euthanized by ketamine/xylazine injection at 16 hr for collection of serum, and liver tissue for MPO activity assay and histology.
2APB (Sigma Aldrich) was made fresh for each experiment in DMSO as a vehicle at 200 mg/ml. 2APB was dosed at 1 or 20 mg/kg, and was administered before (90 min), with, or after (1.5, 3 or 6 hr) the appropriate dose of TAA or APAP. Vehicle control mice received the appropriate volume of DMSO. Fresh anhydrous DMSO (Sigma Aldrich) was used for each experiment. DMSO was dosed at 0.1 or 1 ml/kg, and coadministered concurrently with 200 mg/kg TAA or saline.
Mouse liver tissues were homogenized in MPO buffer (0.5% hexadecyl trimethyl ammonium bromide, 10 mM EDTA, 50 mM Na2HPO4, pH 5.4) using a Polytron homogenizer. Liver homogenates were then subject to three freeze-thaw cycles and cleared by centrifugation. MPO reaction was carried out using the Invitrogen EnzChek Myeloperoxidase Activity Assay Kit (Invitrogen, Carlsbad, Calif.), according to the manufacturer's protocol.

Cx32 gap junctions [5] = biological target: Cx32 gap junctions (Homo sapiens, UniProt P08034); conditions: shown previously, Tao & Harris, 71 Mol. Pharmacol. 57 (2007); cited from earlier work
[6] = 2APB coadministered with TAA (200 mg/kg), 24 hours
[7] = rescue injection of 2APB (20 mg/kg) 6 hours after TAA (200 mg/kg)
[8] = single dose 2APB (20 mg/kg) 60 minutes prior to TAA (200 mg/kg), 24 hours, compared to vehicle
[9] = 2APB (20 mg/kg) coadministered with APAP (500 mg/kg), 16 hours
[10] = rescue injection of 2APB (20 mg/kg) 6 hours after APAP (500 mg/kg)

Sequence of Cx32 gap junctions (Homo sapiens, UniProt P08034) (P08034 whole entry): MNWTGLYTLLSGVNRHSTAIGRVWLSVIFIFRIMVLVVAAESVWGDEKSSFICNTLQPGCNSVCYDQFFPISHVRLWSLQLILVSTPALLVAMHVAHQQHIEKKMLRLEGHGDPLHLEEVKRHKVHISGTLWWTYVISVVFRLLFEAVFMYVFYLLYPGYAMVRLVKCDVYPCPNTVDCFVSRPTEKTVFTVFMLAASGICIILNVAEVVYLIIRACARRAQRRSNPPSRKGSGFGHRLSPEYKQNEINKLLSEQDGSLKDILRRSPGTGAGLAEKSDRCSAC

CC(=N)S [TAA, thioacetamide]
mortality (Cx32+/+ and Cx32−/− mice; Cx32+/+ mice): 100% | survival (Cx32+/+ and Cx32−/− mice; Cx32−/− mice): 100%

NCCOB(c1ccccc1)c1ccccc1 [2APB, 2-aminoethyoxydiphenyl-borate]
effect on Cx43 gap junctions (spread of calcein) (Cx43 gap junctions): minimal effect | spread of calcein via Cx32 gap junctions (Cx32 gap junctions [1]): blocked | total hepatic ROS levels (wild type mice [2]): dramatically reduced | total hepatic ROS levels (wild type mice [2]; listed as 2-APB): abrogated | serum ALT (wild type mice [2]; 2APB (1 or 20 mg/kg) coadministered with TAA (200 mg/kg), 24 hours, compared with TAA alone): dramatically reduced | histological evidence of hepatic necrosis and hemorrhaging (wild type mice [2]; [6]): dramatically reduced | neutrophil infiltration (liver tissue MPO activity) (wild type mice [2]; [6]): dramatically reduced | liver inflammation (wild type mice [2]; 2APB coadministered with TAA (200 mg/kg), Q-PCR of whole livers): dramatically reduced | hepatotoxicity (wild type mice [2]; rescue injection of 2APB (20 mg/kg) 1.5 hours after TAA (200 mg/kg)): nearly complete absence | hepatocellular damage and necrosis (wild type mice [2]; [7]): limited | serum ALT levels (wild type mice [2]; [7]): reduced | histological evidence of parenchymal damage (wild type mice [2]; [8]): dramatically reduced | neutrophil infiltration (liver tissue MPO activity) (wild type mice [2]; [8]): limited | serum ALT (wild type mice [2]; [8]): significantly reduced | survival (wild type mice [2]; single lethal dose TAA (500 mg/kg) plus 2APB (20 mg/kg), 30 days): 100% | hepatic gap junction communication in vivo (spread of Lucifer yellow) [3]: effectively blocks | histological evidence of hepatic necrosis and hemorrhaging (wild type mice [4]; [9]): dramatically reduced | neutrophil infiltration (liver tissue MPO activity) (wild type mice [4]; [9]): dramatically reduced | serum ALT (wild type mice [4]; 2APB (20 mg/kg) coadministered with APAP (500 mg/kg), 16 hours, compared with APAP alone): dramatically reduced | liver inflammation (wild type mice [4]; 2APB coadministered with APAP): dramatically reduced | total hepatic ROS levels (wild type mice [4]; 2APB coadministered with APAP): dramatically reduced | hepatotoxicity (wild type mice [4]; rescue injection of 2APB (20 mg/kg) 1.5 hours after APAP (500 mg/kg)): nearly complete absence | hepatocellular damage and necrosis (wild type mice [4]; [10]): limited | serum ALT levels (wild type mice [4]; [10]): reduced | inhibition of Cx32 gap junctions in vitro (Cx32 gap junctions [5]): transiently inhibit
